ChEMBL document CHEMBL2074460, “P-glycoprotein-mediated transport of digitoxin, alpha-methyldigoxin and beta-acetyldigoxin” (Naunyn Schmiedebergs Arch Pharmacol, 2001)

Molecular target: ATP-dependent translocase ABCB1 (Homo sapiens, UniProt P08183)
Test: TP_TRANSPORTER: transepithelial transport (basal to apical) in MDR1-expressing LLC-PK1 cells
Format: functional, cell-based
Conditions: pig

Chain of ATP-dependent translocase ABCB1 (P08183 whole entry): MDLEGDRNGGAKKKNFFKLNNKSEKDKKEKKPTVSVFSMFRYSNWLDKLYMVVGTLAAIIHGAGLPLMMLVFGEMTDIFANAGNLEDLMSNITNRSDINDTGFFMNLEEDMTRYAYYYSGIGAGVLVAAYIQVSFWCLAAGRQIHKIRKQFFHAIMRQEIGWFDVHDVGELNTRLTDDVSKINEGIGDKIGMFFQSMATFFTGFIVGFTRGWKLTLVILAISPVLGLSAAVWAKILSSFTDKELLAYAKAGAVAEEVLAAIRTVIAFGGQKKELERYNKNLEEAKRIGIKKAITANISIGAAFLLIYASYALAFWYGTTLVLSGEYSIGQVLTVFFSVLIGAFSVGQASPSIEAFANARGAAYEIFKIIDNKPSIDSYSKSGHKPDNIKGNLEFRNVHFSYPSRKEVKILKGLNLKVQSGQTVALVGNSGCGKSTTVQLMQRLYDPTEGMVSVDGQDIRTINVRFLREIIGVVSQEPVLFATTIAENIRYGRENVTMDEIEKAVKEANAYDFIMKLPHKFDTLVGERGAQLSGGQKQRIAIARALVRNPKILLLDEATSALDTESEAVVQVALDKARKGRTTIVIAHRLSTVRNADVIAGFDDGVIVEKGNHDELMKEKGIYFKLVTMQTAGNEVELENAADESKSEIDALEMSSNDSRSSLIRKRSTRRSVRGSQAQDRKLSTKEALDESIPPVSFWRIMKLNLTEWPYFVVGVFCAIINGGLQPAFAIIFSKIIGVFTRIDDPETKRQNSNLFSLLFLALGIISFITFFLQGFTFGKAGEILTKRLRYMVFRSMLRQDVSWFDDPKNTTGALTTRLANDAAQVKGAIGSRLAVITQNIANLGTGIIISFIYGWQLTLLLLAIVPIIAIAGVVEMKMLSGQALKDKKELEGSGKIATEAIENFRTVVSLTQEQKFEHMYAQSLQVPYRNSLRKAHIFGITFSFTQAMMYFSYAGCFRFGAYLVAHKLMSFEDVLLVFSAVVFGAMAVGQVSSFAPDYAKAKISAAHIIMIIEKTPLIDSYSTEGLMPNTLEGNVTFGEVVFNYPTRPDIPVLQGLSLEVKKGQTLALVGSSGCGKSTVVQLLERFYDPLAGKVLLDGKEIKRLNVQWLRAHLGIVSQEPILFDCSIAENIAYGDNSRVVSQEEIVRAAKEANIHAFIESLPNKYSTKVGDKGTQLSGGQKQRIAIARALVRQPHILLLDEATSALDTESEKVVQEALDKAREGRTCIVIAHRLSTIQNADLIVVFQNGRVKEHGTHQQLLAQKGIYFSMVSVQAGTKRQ

Compound	Activity
CC(=O)O[C@H]1C[C@H](O[C@H]2[C@@H](O)C[C@H](O[C@H]3[C@@H](O)C[C@H](O[C@H]4CC[C@@]5(C)[C@H](CC[C@@H]6[C@@H]5C[C@@H](O)[C@]5(C)[C@@H](C7=CC(=O)OC7)CC[C@]65O)C4)O[C@@H]3C)O[C@@H]2C)O[C@H](C)[C@H]1O [ACETYLDIGOXIN]	substrate [+]
O=C(O)CCC(=O)C(=O)O [ALPHA-KETOGLUTARIC ACID]	substrate [+]
C[C@H]1O[C@@H](O[C@H]2[C@@H](O)C[C@H](O[C@H]3[C@@H](O)C[C@H](O[C@H]4CC[C@@]5(C)[C@H](CC[C@@H]6[C@@H]5CC[C@]5(C)[C@@H](C7=CC(=O)OC7)CC[C@]65O)C4)O[C@@H]3C)O[C@@H]2C)C[C@H](O)[C@@H]1O [DIGITOXIN]	substrate [+]
